Measured values published in patent US20250115669A1, “FGFR1/KLB Targeting Agonistic Antigen-Binding Proteins and Conjugates Thereof with GLP-1R Agonistic Peptides” (SANOFI, priority 2020, published 2025).

What was measured:
[1] = NHP study of Ab0335 (SAR18) versus 16H7 (SAR16) in high-fat diet-induced obese cynomolgus monkeys; assay type: in vivo, Cynomolgus monkey (Macaca fascicularis); settings: for body weight compared to baseline values (value prior start of treatment) / food intake: obese cynomolgus monkeys; for body weight (in words): SAR16 1 mg/kg, SAR18 low- and high-dose; for food intake: especially lunch (apple), lesser impact on dinner (HFD); for plasma triglyceride (TG) values: over the whole study period
Method: Both were tested as single administration in the most relevant animal model that reflects the intended human population. Monkeys are a desirable species to examine the potential effects of drug candidates because of the similarity of their absorption, distribution, metabolism, and excretion profile compared to that of humans. The cynomolgus monkey is selected as the test species of choice over other lower mammalian species for more meaningful and translatable results because it is closely related to humans, both phylogenetically and physiologically. Thus, the pharmacokinetic and pharmacodynamics of varying doses of the compounds were explored in the high-fat diet-induced obese and insulin resistance cynomolgus monkey model.
Cynomolgus monkey (Macaca fascicularis) was selected as the test species of choice for more meaningful results that were translatable to humans. More than 50 male monkeys were trained to identify 40 HFD induced obese monkeys for the study.
They all fulfilled the following metabolic criteria: • weight at least 8 kg, age at least 8 years, fasting insulin >55 μU/mL (in comparison lean monkeys of same age range: weight 5 to 8 kg, fasting glucose ˜70 mg/dL, and fasting insulin ˜[…]), HbA1c >4%, triglycerides >1.3 mmol/L, LDL >5 mmol/L.
The monkeys were individually housed in species- and size appropriate metabolic stainless-steel caging with ad libitum access to water and under controlled environmental conditions with room temperature of 18° C. to 29° C., relative humidity of 30% to 70%, and a minimum of 10 air changes per hour. A time-controlled lighting system provided a regular 12-hour light/12-hour dark diurnal cycle. Cages were cleaned at regular intervals. The monkeys had three meals per day with a daily energy intake of ˜680 kcal (˜2.85 MJ). All food was withdrawn at 5:00 PM so that monkeys were fasted overnight. Monkeys were provided with enrichment toys or devices at all times. […] Each batch of monkey chow was delivered with an accompanying certificate of analysis detailing nutritional composition and levels of specified contaminants (e.g., heavy metals, aflatoxin, and insecticides). Ad libitum access to water through the main system was suspended on days in which water intake was quantified.
There was a run-in period during which monkeys were injected subcutaneously with vehicle once weekly. Food intake (calculated as TEI) and water intake were measured daily along with once-weekly body weight evaluation and one-time baseline value determination for metabolic biomarkers, safety biomarkers, IV glucose tolerance test (IVGTT), and profile for glucose, insulin, and plasma lipids.
For the dosing period 40 trained monkeys (n=10 per group) were selected and stratified for their body weight, fat composition and triglycerides in a four-arm design. All treatments, including a vehicle treated control group were administered subcutaneously on days +1, +19 and +37 and monitored closely for 8 weeks followed by a 4-week observation wash-out period. The dosing period was designed as a four-arm study, and monkeys were treated with either vehicle, SAR16, or SAR18.
The SAR16-treated monkeys were dosed at 1 mg/kg on day +1, day +19, and day +37. The SAR18-treated monkeys were dosed in the low-dose arm at 1 mg/kg on day +1, day +19, and day +37. SAR18 was further dosed in the high-dose arm at 3 mg/kg on day +1, day +19, and day +37.
Other parameters were also measured during the study, including food intake, body fat, plasma ketone bodies, as well as, on blood glucose control (glucose profile, fed, fasting plasma glucose and during ivGTT). One group received the vehicle. The compounds were administered subcutaneously (SC) (12 weeks “evaluation phase” plus run-out) to obese male cynomolgus macaques (Macaca fascicularis).
The SAR16-treated monkeys were dosed 3 times on day +1, day +19, and day +37 at 1 mg/kg. […]

[2] = Plasma concentrations and PK during three subcutaneous administrations in obese cynomolgus monkeys; assay type: in vivo, Cynomolgus monkey (Macaca fascicularis); settings: subcutaneous doses of 1 mg/kg, male obese Cynomolgus monkeys
Method: Specifically, plasma concentrations and pharmacokinetic parameters were analyzed during a treatment of three subsequent subcutaneous administrations of 1 and 3 mg/kg in solution to male obese Cynomolgus monkeys. The exposure to both tested antibodies after subcutaneous doses of 1 mg/kg […] were similar. Moreover, plasma concentrations of both compounds were detected up to the end of sampling (i.e. 336 and 504 hours after the 2nd and the 3rd dose, respectively).

Row | Substance | body weight compared to baseline values (value prior start of treatment) ([1]; 1 mg/kg SC on day +1, +19, +37) | body weight (in words) [1] | food intake [1] | plasma triglyceride (TG) values [1] | exposure [2] | body weight compared to baseline values (value prior start of treatment) ([1]; 3 mg/kg SC (high dose) on day +1, +19, +37)
1 | 16H7: anti FGFR1c/KLB monoclonal antibody of WO 2011/071783, IgG2 backbone; HC SEQ ID NO: 1, LC SEQ ID NO: 2 [Ab 16H7] | 86.5±1.6% | Significant reductions in body weight | Reduction of food intake | quite robustly reduced | similar | –
2 | Ab0335: IgG4 PE; 16H7 VL (N25S, D49S, D50A, D91E, N93E); 16H7 VH (M34V, I83T, D109E); HC SEQ ID NO: 39, LC SEQ ID NO: 46 | 94.5±1.8% | Significant reductions in body weight | Reduction of food intake | quite robustly reduced | similar | 89.9±1.7%
